This note sets out measurements from ChEMBL document CHEMBL1147308, “Novel secoiridoid lactones from Jasminum multiflorum” (1989).

The structures appear in SMILES notation. Calls of active or inactive are those of the source. The rule behind the calls is not given here.

Experiment [1] deals with Heart. Kind of experiment: Cardiotropic activity in perfused guinea pig heart assessed as positive chronotropy. As to conditions: Cavia porcellus. Format: functional, tissue-based.
In experiment [2] the test system is Heart. Kind of experiment: Coronary dilatory activity in perfused guinea pig heart assessed as minimum effective concentration. Format: functional, Cavia porcellus.
Experiment [3] relates to Heart. Kind of experiment: Cardiotropic activity in perfused guinea pig heart assessed as minimum effective concentration. It counts as functional, Cavia porcellus.
The test system of experiment [4] is Heart. Kind of experiment: Cardiotropic activity in perfused guinea pig heart assessed as positive ionotropy. The note with it: Cavia porcellus. It counts as functional, tissue-based.
In experiment [5] the test system is Heart. The experiment in a line: Cardiotropic activity in perfused guinea pig heart assessed as negative chronotropy. It counts as functional, tissue-based. The note with it: Cavia porcellus.
Experiment [6] concerns Heart. Kind of experiment: Cardiotropic activity in perfused guinea pig heart assessed as negative ionotropy. It counts as functional, tissue-based. The note with it: Cavia porcellus.

As for `CC(C)NCC(O)c1ccc(O)c(O)c1` (configuration not stated) [ISOPROTERENOL], the result in the experiment on Heart [1] and with Heart [4] was Active. Moreover, the MEC in the experiment on Heart [2] amounted to 4.7 ×10⁻⁷ M; with Heart [3], 4.7 ×10⁻⁸ M.

Turning to `COC(=O)C1=CO[C@@H](O)[C@H]2[C@@H]1CC(=O)OC[C@H]2OCCc1ccc(O)c(O)c1` [JASMOLACTONE A], the MEC with Heart [2] is reported as 1.3 ×10⁻⁵ M; in the experiment on Heart [3] it was 2.5 ×10⁻⁵ M. Further, in the experiment on Heart [5], the outcome was inactive. Also, the result in the experiment with Heart [6] was Active.

For `O=C1C[C@@H]2C(C(=O)OCCc3ccc(O)c(O)c3)=CO[C@@H](O)[C@@H]2[C@H](OCCc2ccc(O)c(O)c2)CO1` [JASMOLACTONE B], the MEC in the experiment with Heart [2] stood at 4.8 ×10⁻⁶ M; with Heart [3], 9.7 ×10⁻⁶ M. The outcome in the experiment on Heart [5] was inactive. Moreover, in the experiment with Heart [6], the outcome was Active.
